Measured values reported in ChEMBL document CHEMBL4308841, “Synthesis, in vitro antiproliferative activity, and kinase inhibitory effects of pyrazole-containing diarylureas and diarylamides” (Eur J Med Chem, 2018).

Key:
[1] = system: RPMI-8226; assay: Growth inhibition of human RPMI8226 cells assessed as cell growth at 100 uM incubated for 48 hrs by sulforhodamine B assay relative to control; assay type: functional; conditions: RPMI-8226, 48 h, read-out: Activity
[2] = system: UACC-62; assay: Growth inhibition of human UACC62 cells assessed as cell growth at 1 uM incubated for 48 hrs by sulforhodamine B assay relative to control; assay type: functional; conditions: UACC-62, 48 h, read-out: Activity
[3] = system: MDA-MB-468; assay: Growth inhibition of human MDA-MB-468 cells assessed as cell growth at 1 uM incubated for 48 hrs by sulforhodamine B assay relative to control; assay type: functional; conditions: MDA-MB-468, 48 h, read-out: Activity
[4] = system: Malme-3M; assay: Growth inhibition of human MALME-3M cells assessed as cell growth at 1 uM incubated for 48 hrs by sulforhodamine B assay relative to control; assay type: functional; conditions: read-out: Activity
[5] = system: UACC-62; assay: Growth inhibition of human UACC62 cells assessed as cell growth at 100 uM incubated for 48 hrs by sulforhodamine B assay relative to control; assay type: functional; conditions: UACC-62, 48 h, read-out: Activity
[6] = system: HOP-62; assay: Growth inhibition of human HOP62 cells assessed as cell growth at 1 uM incubated for 48 hrs by sulforhodamine B assay relative to control; assay type: functional; conditions: HOP-62, 48 h, read-out: Activity
[7] = system: RXF 393; assay: Growth inhibition of human RXF393 cells assessed as cell growth at 100 uM incubated for 48 hrs by sulforhodamine B assay relative to control; assay type: functional; conditions: RXF 393, 48 h, read-out: Activity
[8] = system: M14; assay: Growth inhibition of human M14 cells assessed as cell growth at 100 uM incubated for 48 hrs by sulforhodamine B assay relative to control; assay type: functional; conditions: M14, 48 h, read-out: Activity
[9] = system: UACC-257; assay: Growth inhibition of human UACC257 cells incubated for 48 hrs by sulforhodamine B assay; assay type: functional, cell-based; conditions: UACC-257, 48 h
[10] = system: OVCAR-5; assay: Growth inhibition of human OVCAR5 cells assessed as cell growth at 100 uM incubated for 48 hrs by sulforhodamine B assay relative to control; assay type: functional; conditions: OVCAR-5, 48 h, read-out: Activity
[11] = system: HT-29; assay: Growth inhibition of human HT-29 cells assessed as cell growth at 10 uM incubated for 48 hrs by sulforhodamine B assay relative to control; assay type: functional; conditions: HT-29, 48 h, read-out: Activity
[12] = system: K562; assay: Growth inhibition of human K562 cells incubated for 48 hrs by sulforhodamine B assay; assay type: functional, cell-based; conditions: K562, 48 h
[13] = system: HCC 2998; assay: Growth inhibition of human HCC2998 cells assessed as cell growth at 1 uM incubated for 48 hrs by sulforhodamine B assay relative to control; assay type: functional; conditions: HCC 2998, 48 h, read-out: Activity
[14] = system: HCC 2998; assay: Growth inhibition of human HCC2998 cells assessed as cell growth at 0.01 uM incubated for 48 hrs by sulforhodamine B assay relative to control; assay type: functional; conditions: HCC 2998, 48 h, read-out: Activity
[15] = system: UO-31; assay: Growth inhibition of human UO31 cells assessed as cell growth at 0.1 uM incubated for 48 hrs by sulforhodamine B assay relative to control; assay type: functional; conditions: UO-31, 48 h, read-out: Activity
[16] = system: NCI-H226; assay: Growth inhibition of human NCI-H226 cells assessed as cell growth at 1 uM incubated for 48 hrs by sulforhodamine B assay relative to control; assay type: functional; conditions: NCI-H226, 48 h, read-out: Activity
[17] = system: SF-268; assay: Growth inhibition of human SF268 cells incubated for 48 hrs by sulforhodamine B assay; assay type: functional, cell-based; conditions: SF-268, 48 h
[18] = system: NCI-H322M; assay: Growth inhibition of human NCI-H322M cells assessed as cell growth at 0.1 uM incubated for 48 hrs by sulforhodamine B assay relative to control; assay type: functional; conditions: read-out: Activity
[19] = system: COLO 205; assay: Growth inhibition of human COLO205 cells assessed as cell growth at 0.01 uM incubated for 48 hrs by sulforhodamine B assay relative to control; assay type: functional; conditions: COLO 205, 48 h, read-out: Activity
[20] = system: UACC-257; assay: Growth inhibition of human UACC257 cells assessed as cell growth at 0.1 uM incubated for 48 hrs by sulforhodamine B assay relative to control; assay type: functional; conditions: UACC-257, 48 h, read-out: Activity
[21] = system: NCI/ADR-RES; assay: Growth inhibition of human NCI/ADR-RES cells assessed as cell growth at 0.01 uM incubated for 48 hrs by sulforhodamine B assay relative to control; assay type: functional; conditions: read-out: Activity
[22] = system: SNB-19; assay: Growth inhibition of human SNB19 cells assessed as cell growth at 1 uM incubated for 48 hrs by sulforhodamine B assay relative to control; assay type: functional; conditions: SNB-19, 48 h, read-out: Activity
[23] = system: SF-268; assay: Growth inhibition of human SF268 cells assessed as cell growth at 0.01 uM incubated for 48 hrs by sulforhodamine B assay relative to control; assay type: functional; conditions: SF-268, 48 h, read-out: Activity
[24] = system: SN12C; assay: Growth inhibition of human SN12C cells assessed as cell growth at 1 uM incubated for 48 hrs by sulforhodamine B assay relative to control; assay type: functional; conditions: read-out: Activity
[25] = system: U-251; assay: Growth inhibition of human U251 cells assessed as cell growth at 0.01 uM incubated for 48 hrs by sulforhodamine B assay relative to control; assay type: functional; conditions: U-251, 48 h, read-out: Activity
[26] = system: SW-620; assay: Growth inhibition of human SW620 cells incubated for 48 hrs by sulforhodamine B assay; assay type: functional, cell-based; conditions: SW-620, 48 h
[27] = system: DU-145; assay: Growth inhibition of human DU145 cells assessed as cell growth at 0.1 uM incubated for 48 hrs by sulforhodamine B assay relative to control; assay type: functional; conditions: DU-145, 48 h, read-out: Activity
[28] = system: A498; assay: Growth inhibition of human A498 cells assessed as cell growth at 100 uM incubated for 48 hrs by sulforhodamine B assay relative to control; assay type: functional; conditions: A498, 48 h, read-out: Activity
[29] = system: DU-145; assay: Growth inhibition of human DU145 cells assessed as cell growth at 0.01 uM incubated for 48 hrs by sulforhodamine B assay relative to control; assay type: functional; conditions: DU-145, 48 h, read-out: Activity
[30] = system: LOX IMVI; assay: Growth inhibition of human LOXIMVI cells incubated for 48 hrs by sulforhodamine B assay; assay type: functional
[31] = read-out: LC50 (the source's name)
[32] = read-out: pLC50 (the source's name) (converted)

COc1cc(Cl)cc(-c2nn(-c3cccc(NC(=O)Nc4cc(C(F)(F)F)cc(C(F)(F)F)c4)c3)cc2-c2ccncc2)c1
growth at 100 µM [1]: -8% | growth at 1 µM [2]: 18% | growth at 1 µM [3]: 15% | growth at 1 µM [4]: 36% | growth at 100 µM [5]: -71% | growth at 1 µM [6]: 40% | growth at 100 µM [7]: -92% | growth at 100 µM [8]: -82% | IC50 [9]: 410 nM | GI50 ([9]; read-out: GI50): 412 nM | CC50 [9, 31]: 70 nM | TGI ([9]; read-out: TGI): 1840 nM | GI50 ([9]; read-out: pGI50 (converted)): 407 nM | CC50 [9, 32]: 7080 nM | TGI ([9]; read-out: pTGI (converted)): 1860 nM | growth at 100 µM [10]: -80% | growth at 10 µM [11]: 3.93% | IC50 [12]: 350 nM | GI50 ([12]; read-out: GI50): 351 nM | LC50 ([12]; read-out: LC50): > 100000 nM | TGI ([12]; read-out: TGI): 5840 nM | GI50 ([12]; read-out: pGI50 (converted)): 355 nM | LC50 ([12]; read-out: pLC50 (converted)): > 100000 nM | TGI ([12]; read-out: pTGI (converted)): 5890 nM | growth at 1 µM [13]: 38% | growth at 0.01 µM [14]: 95% | growth at 0.1 µM [15]: 75% | growth at 1 µM [16]: 41% | IC50 [17]: 620 nM | GI50 ([17]; read-out: GI50): 618 nM | CC50 [17, 31]: 30.7 nM | TGI ([17]; read-out: TGI): 3250 nM | GI50 ([17]; read-out: pGI50 (converted)): 617 nM | CC50 [17, 32]: 30900 nM | TGI ([17]; read-out: pTGI (converted)): 3240 nM | growth at 0.1 µM [18]: 95% | growth at 0.01 µM [19]: 98% | growth at 0.1 µM [20]: 94% | growth at 0.01 µM [21]: 99% | growth at 1 µM [22]: 28% | growth at 0.01 µM [23]: 97% | growth at 1 µM [24]: 17% | growth at 0.01 µM [25]: 96% | IC50 [26]: 390 nM | GI50 ([26]; read-out: GI50): 300 nM | LC50 ([26]; read-out: LC50): 15 nM | TGI ([26]; read-out: TGI): 2000 nM | GI50 ([26]; read-out: pGI50 (converted)): 389 nM | LC50 ([26]; read-out: pLC50 (converted)): 15100 nM | TGI ([26]; read-out: pTGI (converted)): 2000 nM | growth at 0.1 µM [27]: 95% | growth at 100 µM [28]: -59% | growth at 0.01 µM [29]: 104%

COc1cc(Cl)cc(-c2nn(-c3cccc(NC(=O)Nc4ccc(Cl)c(Cl)c4)c3)cc2-c2ccncc2)c1
growth at 100 µM [1]: -34% | growth at 1 µM [2]: 75% | growth at 1 µM [3]: 69% | growth at 1 µM [4]: 77% | growth at 100 µM [5]: -32% | growth at 1 µM [6]: 91% | growth at 100 µM [7]: -43% | growth at 100 µM [8]: -36% | GI50 ([9]; read-out: GI50): 1540 nM | CC50 [9, 31]: > 100000 nM | TGI ([9]; read-out: TGI): 61900 nM | GI50 ([9]; read-out: pGI50 (converted)): 1860 nM | CC50 [9, 32]: > 100000 nM | TGI ([9]; read-out: pTGI (converted)): 5250 nM | growth at 100 µM [10]: 9% | growth at 10 µM [11]: 7.39% | GI50 ([12]; read-out: GI50): 1000 nM | LC50 ([12]; read-out: LC50): > 100000 nM | TGI ([12]; read-out: TGI): > 100000 nM | GI50 ([12]; read-out: pGI50 (converted)): 1950 nM | LC50 ([12]; read-out: pLC50 (converted)): > 100000 nM | TGI ([12]; read-out: pTGI (converted)): > 100000 nM | growth at 1 µM [13]: 91% | growth at 0.01 µM [14]: 93% | growth at 1 µM [16]: 82% | GI50 ([30]; read-out: GI50): 2910 nM | CC50 [30, 31]: > 100000 nM | TGI ([30]; read-out: TGI): 12400 nM | GI50 ([30]; read-out: pGI50 (converted)): 2880 nM | CC50 [30, 32]: > 100000 nM | TGI ([30]; read-out: pTGI (converted)): 30900 nM | GI50 ([17]; read-out: GI50): 3270 nM | CC50 [17, 31]: > 100000 nM | TGI ([17]; read-out: TGI): > 100000 nM | GI50 ([17]; read-out: pGI50 (converted)): 3240 nM | CC50 [17, 32]: > 100000 nM | TGI ([17]; read-out: pTGI (converted)): > 100000 nM | growth at 0.1 µM [18]: 90% | growth at 0.01 µM [19]: 99% | growth at 0.1 µM [20]: 96% | growth at 0.01 µM [21]: 97% | growth at 1 µM [22]: 89% | growth at 0.01 µM [23]: 95% | growth at 1 µM [24]: 87% | growth at 0.01 µM [25]: 95% | GI50 ([26]; read-out: GI50): 3430 nM | LC50 ([26]; read-out: LC50): > 100000 nM | TGI ([26]; read-out: TGI): > 100000 nM | GI50 ([26]; read-out: pGI50 (converted)): 3390 nM | LC50 ([26]; read-out: pLC50 (converted)): > 100000 nM | TGI ([26]; read-out: pTGI (converted)): > 100000 nM | growth at 0.1 µM [27]: 97% | growth at 0.01 µM [29]: 101%
